Values after ≈ are worked out from the molar mass of the structure shown. A value given as a limit tells only on which side of the number the result lay.

The nature of series [1]: Fecal excretion in bile duct cannulated Sprague-Dawley rat at 100 mg/kg, po after 72 hrs. Further details: dose 100 mg/kg, route oral; call rule not given here. The following applies: faeces, read-out: Activity. In kind it is ADME, organism-based.
Series [2] is described as follows: Urinary excretion in bile duct cannulated Sprague-Dawley rat at 100 mg/kg, po after 72 hrs. The series is classed as ADME, organism-based. Further details: dose 100 mg/kg, route oral. The following applies: urine, read-out: Activity.
The test system of series [3] is Rattus norvegicus. Description: Urinary excretion in intact Sprague-Dawley rat at 100 mg/kg, po after 168 hrs. The series is classed as ADME, organism-based, Urine. Further details: dose 100 mg/kg, route oral. The following applies: in vivo.
A short description of series [4]: Fecal excretion in intact Sprague-Dawley rat at 100 mg/kg, po after 168 hrs. Also noted: dose 100 mg/kg, route oral. In kind it is ADME, organism-based. As to conditions: faeces, read-out: Activity.
Series [5] in a line: Biliary excretion in bile duct cannulated Sprague-Dawley rat at 100 mg/kg, po after 72 hrs. The series is classed as ADME, organism-based. Also noted: dose 100 mg/kg, route oral. As to conditions: read-out: Activity.
For series [6], the system named is Rattus norvegicus. Description: (§1) AUC (0-t) in jugular vein cannulated Sprague-Dawley rat at 100 mg/kg, po. The series is classed as ADME, organism-based, Plasma. Further details: dose 100 mg/kg, route oral. As to conditions: in vivo.
In series [7] the test system is Rattus norvegicus. The series can be described thus: Terminal half life in jugular vein cannulated Sprague-Dawley rat at 100 mg/kg, po administered as prodrug. The series is classed as ADME, organism-based. Also noted: dose 100 mg/kg, route oral. The following applies: in vivo.
Series [8] relates to Rattus norvegicus. Description: Tmax in jugular vein cannulated Sprague-Dawley rat at 100 mg/kg, po administered as prodrug. The series is classed as ADME, organism-based. Also noted: dose 100 mg/kg, route oral. The following applies: in vivo.
Series [9] in a line: Chemical stability at pH 4.5. The series is classed as physicochemical. The following applies: buffer.
Series [10] in a line: Cmax in Sprague-Dawley rat after 15 days at 60 mg/kg/day, iv. In kind it is ADME, organism-based. Also noted: dose 60 mg/kg/day, route intravenous. As to conditions: in vivo.
Series [11] is described as follows: AUC in Sprague-Dawley rat after 15 days at 60 mg/kg/day, iv. The series is classed as ADME, organism-based. Further details: route intravenous. As to conditions: plasma.
Series [12] deals with Rattus norvegicus. Description: AUC(0-t) in jugular vein cannulated Sprague-Dawley rat at 100 mg/kg, po administered as prodrug. The series is classed as ADME, organism-based, Plasma. Further details: dose 100 mg/kg, route oral. As to conditions: in vivo.
Series [13] is described as follows: Protein binding in rat plasma at 20 uM. The series is classed as ADME, cell-free. The following applies: read-out: PPB (converted).
For series [14], the system named is Rattus norvegicus. The series can be described thus: Apparent oral bioavailability in jugular vein cannulated Sprague-Dawley rat at 100 mg/kg, po administered as prodrug. In kind it is ADME, organism-based. The following applies: in vivo.
Series [15] can be described thus: Distribution coefficient, log P of the compound. In kind it is physicochemical. As to conditions: octanol/water.
Series [16] concerns Rattus norvegicus. The series can be described thus: Cmax in jugular vein cannulated Sprague-Dawley rat at 100 mg/kg, po administered as prodrug. The series is classed as ADME, organism-based. Further details: dose 100 mg/kg, route oral. As to conditions: in vivo.
Series [17] can be described thus: Chemical stability at pH 1.2. The series is classed as physicochemical. The following applies: buffer.
A short description of series [18]: Chemical stability at pH 7.2. The series is classed as physicochemical. The following applies: buffer.
Series [19] in a line: Aqueous solubility of the compound. The series is classed as physicochemical.
Series [20] is described as follows: Tmax in jugular vein cannulated Sprague-Dawley rat at 100 mg/kg, po. In kind it is ADME, organism-based. Further details: dose 100 mg/kg, route oral. As to conditions: in vivo.
For series [21], the species on record is Homo sapiens. Description: Conversion of prodrug to 2'-C-methylcytidine in human liver cytosol. The series is classed as ADME, organism-based.
A short description of series [22]: Half life in human whole blood. In kind it is ADME, organism-based.
Series [23] can be described thus: Half life at pH 4.5. As to conditions: buffer. In kind it is ADME.
The species entered for series [24] is Homo sapiens. The series can be described thus: Conversion of prodrug to 2'-C-methylcytidine in human liver S9 fraction. The series is classed as ADME, organism-based.
Series [25] can be described thus: Terminal half life in jugular vein cannulated Sprague-Dawley rat at 100 mg/kg, po. In kind it is ADME, organism-based. Further details: dose 100 mg/kg, route oral. As to conditions: in vivo, read-out: beta t1/2 (converted).
Series [26] is described as follows: Cmax in jugular vein cannulated Sprague-Dawley rat at 100 mg/kg, po. The series is classed as ADME, organism-based. The following applies: in vivo. Further details: dose 100 mg/kg, route oral.
Series [27] in a line: as §1. Also noted: dose 100 mg/kg, route oral. The following applies: Sprague-Dawley, plasma. In kind it is ADME, organism-based, Plasma.
Another series has as its system Plasma. Description: Drug level in jugular vein cannulated Sprague-Dawley rat plasma after 12 hrs. In kind it is ADME, cell-free.
Series [28] is described as follows: Half life at pH 7.2. In kind it is ADME. The following applies: buffer.
Series [29] is filed under the species Homo sapiens. The series can be described thus: Half life in human plasma.

For the compound `CC(C)C(N)C(=O)O[C@H]1[C@H](CO)O[C@H](n2ccc(N)nc2=O)[14C@@]1(C)O.Cl.Cl` (stereo partly drawn), the dose excreted at 72 h in [1] worked out at 65.9%; in series [2], 29.8%; in [5] it was 0.3%. In addition, in the series with Rattus norvegicus [3], the Activity is recorded as 31.9%. In [4], the dose excreted at 168 h was determined as 63.5%.

The compound `C[C@@]1(O)[C@@H](n2ccc(=O)[nH]c2=O)O[C@@H](CO)[C@@H]1O` registered an AUC in the series with Rattus norvegicus [6] below 0.1 µg/mL.

Broadly, the Tmax is the time at which the peak concentration occurs. Usually Cmax stands for the highest concentration seen after dosing. The logP is a log measure of how a compound divides between an organic and an aqueous phase. What is called solubility is the dissolved amount per volume that the medium holds. Low values mean a poorly soluble substance, high ones a readily soluble substance. Take `C[C@@]1(O)[C@H](O)[C@@H](CO)O[C@H]1n1ccc(N)nc1=O`: in the series on Rattus norvegicus [7], the “beta t1/2” value worked out at 7.1 h. For the same compound, the Tmax with Rattus norvegicus [8] stood at 2 h. The Stability result in series [9], in series [17] and in series [18] was “Stable” throughout. Moreover, the Cmax was determined as 75600 ng/mL in series [10] and 6120 ng/mL in the series on Rattus norvegicus [16]. The AUC at 360 h in [11] amounted to 74400 ng·h/mL. In addition, the AUC in the series with Rattus norvegicus [12] was 30000 ng·h/mL. Moreover, the fraction unbound at 20 µM in series [13] is 0.95. The F in the series on Rattus norvegicus [14] worked out at 33.6%. Further, in series [15], the logP is -0.965. In addition, the solubility in series [19] is 32 mg/mL (≈ 124 mM).

The term AUC(0-t) denotes the area under the concentration-time curve up to a stated or last time point. Regarding `CC(C)[C@H](N)C(=O)O[C@@H]1[C@@H](CO)O[C@@H](n2ccc(N)nc2=O)[C@]1(C)O.Cl.Cl` [VALOPICITABINE DIHYDROCHLORIDE], the Tmax in series [20] amounted to 1 h. Also, the Activity is given as 30% in the series filed under Homo sapiens [21], 30% in the series filed under Homo sapiens [24] and “Not Active” with Plasma. For the same compound, the half-life in series [22] was 0.667 h; in series [23], 146 h; in series [25] it was 0.64 h; in [28] it was 3.9 h; in the series listed under Homo sapiens [29], 2.17 h. Further, in series [13], the fraction unbound at 20 µM was 0.93. The same compound showed a Cmax in series [26] of 3620 ng/mL. In series [15], this compound had a lipophilicity (logP) of -1.34. In addition, in series [27], the exposure AUC(0-t) came out at 8950 ng·h/mL. In [19], this compound showed a solubility of 423 mg/mL.

The values are drawn from ChEMBL document CHEMBL1137330, “Synthesis and pharmacokinetics of valopicitabine (NM283), an efficient prodrug of the potent anti-HCV agent 2'-C-methylcytidine” (J Med Chem, 2006).
